Source: US6476012B2, “Estradiol-16α-carboxylic acid esters as locally active estrogens” (Yale University, priority 2001, dated 2002)
Structures can show the parent of a compound that is named as a salt.

What was measured:
[1] = target: T1, ER in rat uterine cytosol (ERα) (Rattus norvegicus, UniProt P06211); assay: Competitive binding to the ER in rat uterine cytosol (RBA vs [3H]E2); details: for ER RBA (relative binding affinity): rat uterine estrogen receptor assay, E2 = 100, ± S.D.; for RBA: uterine cytosol (ERα), relative to E2
T1 construct: The uterus was removed and homogenized in ice-cold TEGDMo buffer; from tissue; host or cells: uterine cytosol of castrated female Sprague Dawley rats
T1 sequence (P06211 1-600): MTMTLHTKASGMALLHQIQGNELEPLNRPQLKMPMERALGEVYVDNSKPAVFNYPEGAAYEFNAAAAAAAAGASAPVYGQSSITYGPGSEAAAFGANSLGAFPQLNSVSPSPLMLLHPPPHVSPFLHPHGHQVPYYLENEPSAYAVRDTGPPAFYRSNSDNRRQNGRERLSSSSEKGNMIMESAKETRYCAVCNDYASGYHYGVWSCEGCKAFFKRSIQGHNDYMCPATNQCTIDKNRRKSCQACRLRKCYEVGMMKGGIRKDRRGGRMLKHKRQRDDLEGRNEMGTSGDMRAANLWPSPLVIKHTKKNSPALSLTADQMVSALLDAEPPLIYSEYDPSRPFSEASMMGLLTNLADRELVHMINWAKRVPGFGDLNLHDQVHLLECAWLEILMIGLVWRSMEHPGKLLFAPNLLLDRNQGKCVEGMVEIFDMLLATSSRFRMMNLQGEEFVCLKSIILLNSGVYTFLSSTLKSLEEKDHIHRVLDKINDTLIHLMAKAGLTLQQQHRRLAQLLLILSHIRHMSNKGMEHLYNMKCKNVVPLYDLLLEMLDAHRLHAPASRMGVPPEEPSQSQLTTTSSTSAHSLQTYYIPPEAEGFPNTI
Method: Competitive Binding to the Estrogen Receptor ERα and ERβ. […] The ER in uterine cytosol is ERα the classical form of the ER.^38 Female Sprague Dawley rats were castrated and sacrificed 24 h later. The uterus was removed and homogenized in ice-cold TEGDMo buffer (10 mM Tris, 1.5 mM Na2-EDTA, 10% (v/v) glycerol, 1.0 mM dithiothreitol, 25 mM sodium molybdate, pH 7.4 at 4° C.). and centrifuged at 105,000 g for 45 min at 4° C. The supernatant (cytosol) was frozen on dry ice and stored at −80° C. until assay. […] Incubations were carried out on ice overnight and bound radioactivity was separated from free by adsorption with dextran coated charcoal and quantified by counting.^26 Relative Binding Affinity (RBA) was determined by analysis of the displacement curves by the curve-fitting program Prism (Graph-Pad Software inc., San Diego, Calif.). The results shown in Table 1. below, are from at least 3 separate experiments performed in duplicate.

human ERβ and ERα = assay: Competitive binding to human ERβ and ERα expressed in Escherichia coli lysates (ratio of RBAs); details: RBAs (E2 = 100) in E. coli lysates expressing human ERβ and ERα separately
[2] = test system: alkaline phosphatase (AlkP) induction in Ishikawa cells; assay: Estrogenic potency in Ishikawa cells: induction of AlkP; assay type: cell-based, human; details: for RSA (estrogenic potency compared to E2): Ishikawa AlkP; for Ishikawa Cell AlkP RSA (relative stimulatory activity): induction of AlkP, E2 = 100, ± S.D.
Method: Estrogenic Potency in Ishikawa Cells. The estrogenic potency of the E2-analogs was determined in a estrogen bioassay, the induction of AlkP in human endometrial adenocarcinoma cells (Ishikawa) grown in 96-well microtiter plates as we have previously described.^28 In short, the cells are grown in phenol red free medium with estrogen depleted (charcoal stripped) bovine serum in the presence or absence of varying amounts of the steroids. […] After 3 days, the cells are washed, frozen and thawed, and then incubated with 5 mM p-nitrophenyl phosphate, a chromogenic substrate for the AlkP enzyme, at pH 9.8. To ensure linear enzymatic analysis, the plates are monitored kinetically for the for the production of p-nitrophenol at 405 nm. The relative stimulatory activity is determined by analysis of the curve fitting program Prism. Each compound was analyzed in at least 3 separate experiments performed in duplicate.

[3] = test system: esterase(s) in rat hepatic microsomes; assay: Esterase assay with rat hepatic microsomes; assay type: in vitro ADME; details: for Esterase RHA (relative hydrolytic activity): E16-1,2 = 100
Method: Esterase. Esterase activity was measured in rat hepatic microsomes essentially using the conditions described.^39 Liver obtained from Sprague-Dawley rats was washed with phosphate buffered saline and homogenized in 3 volumes of cold 0.25 M sucrose and centrifuged at 700 g for 10 min and then at 10,000 g for 20 min. The resulting supernatant was centrifuged at 105,000 g for 60 min. The pellet was suspended in 0.1 M phosphate buffer pH 7.4 and washed by centrifugation at 105,000 g for 60 min. The washed pellet was suspended in 0.1 M Tris-HCl pH 8.0 at a concentration of ˜13 mg protein/ml and frozen at −80° C. For assay, the pellets were thawed and diluted with the same buffer. The incubation mixture consisted of the microsomal enzyme preparation, 0.28 mg protein/ml, E2-16α-alkyl esters, 50 μM, added in 10 μL of ethanol, all in a final volume of 1 mL of Tris buffer pH 8.0. Since the rates of reaction are widely different for the various esters, the incubation times were varied accordingly to obtain linear kinetics. At several appropriate time points, 100 μL aliquots were withdrawn and the reaction was quenched with 33 μL CH3CN, followed by a 33 μL of a solution of THF containing 1 […] of the internal standard, 6-ketoestradiol. The quenched aliquot was centrifuged for several minutes on bench-top centrifuge and 80 μl of the supernatant was analyzed for the esterase-hydrolysis product (the corresponding E2-16α-carboxylic acid: E16-1,0 8; E16-2,0 23; E16-3,0 35) by reversed phase HPLC with system H-10 for E2-16-1 and E2-16-2 esters, and with system H-15 for E2-16-3 esters. The E2-16α-carboxyl products, (Rt for E16-1,0 8=7 min and for E16-2,0 23=9 min, E16-3,0 35=6.5 min) and the internal standard, 6-ketoestradiol (Rt 7.5 min in system H-10, and 5 min in system H-15) were quantified at 280 nm on the HPLC UV detector. The UV absorbance was converted to moles of product by comparison to standard curves and corrected for recovery of the internal standard, 6-ketoestradiol. The velocity of the reaction for each ester, in nmol product/min/ml/ was then normalized to the ester, E16-1,2 10 and is shown in Table 1 as relative hydrolytic activity (RHA). The enzymatic velocity for the hydrolysis of E16-1,2 10 was 0.9±0.2 (S.D.) nmol product/min/ml over the various experiments. Since all of the esters could not be tested simultaneously, in each case we compared the rate of hydrolysis of the test compound to that of E16-1,2 10 run concurrently. All compounds were tested in triplicate in 3 separate experiments.

[4] = test system: immature female rats (uterine weight); assay: In vivo systemic estrogenic assay (uterotrophic assay, uterine weight); set-up: species or system rat
Method: FIG. 2 depicts of the results of an in vivo systemic estrogenic assay (uterotrophic assay) as described in the experimental section. […] On the fourth day the animals were killed, the uteri removed and weighed. The total dose is shown. Controls were injected with sesame oil. Error bars are±S.D. n=5. *P<0.05, **P<0.001 when compared to the control.
In Vivo Estrogen Bioassays: Uterine Weight. […] Control animals received sesame oil. On the fourth day, the animals were killed, the uteri were removed, dissected, blotted and weighed. Each compound was assayed in 3 separate experiments with n=5.

[5] = test system: ovariectomized mouse vagina (vaginal reductase activity); assay: In vivo local estrogenic assay (vaginal reductases); details: for dose producing a statistically significant (P<0.001) stimulation of vaginal reductase: intravaginal single dose in 25% propylene glycol in saline (FIG. 3a)
Method: FIG. 3 depicts the results of in vivo local estrogenic assay (vaginal assay).
Controls were injected with vehicle. The next morning, 2,3,5-triphenyltetrazolium chloride was instilled in the vagina and thirty minutes later the animals were killed and the vaginal reductase activity was determined spectrophotometrically Panel a: the steroids were dissolved in 10 μL of 25% propylene glycol in saline. Panel b: the steroids were dissolved in 10 μL of sesame oil. n=5. Error bars are±S.D. *P<0.001 compared to the control.
In Vivo Estrogen Bioassays: Vaginal reductases. […] In some experiments as indicated, the method was modified by dissolving and injecting the estrogens in 10 μL of sesame oil. The next morning 0.5 mg of 2,3,5-triphenyltetrazolium chloride in 20 μL of saline was instilled in the vagina. Thirty minutes the animals were killed and the vaginas removed, washed thoroughly with saline and then blotted on filter paper. Each vagina was placed in a 12×75 mm test tube and extracted for 1 hour with ethanol/tetrachloroethylene (3:1). Afterwards, the solvent was removed and the formazan product in the organic extract was quantified at 500 nm. Each compound was assayed on at least 3 separate occasions with at least 5 replicates each time.

[6] = Stability on incubation with heat denatured enzyme under esterase assay conditions; assay type: in vitro ADME; details: heat denatured (1 h at 80° C.) enzyme, 37° C.
Method: The various E2-16α-alkyl esters, including the reactive E16-1,2vin 15, were stable under the conditions used in the esterase assay. Each of the substrates was incubated with heat denatured (1 h at 80° C.) enzyme at 37° C. for periods that exceeded the incubation times of the enzyme assay. Only insignificant amounts of carboxyl products were formed from any of these esters during the incubations with denatured enzyme.

| SMILES | ER RBA (relative binding affinity) [1] | RBA [1] [%] | ERα/ERβ (ratio of the RBAs) (human ERβ and ERα) | RSA (estrogenic potency compared to E2) [2] [%] | Ishikawa Cell AlkP RSA (relative stimulatory activity) [2] | Esterase RHA (relative hydrolytic activity) ([3]; rat hepatic microsomes, ± S.D.) | uterotrophic effect ([4]; 10 μg total dose per animal) | uterotrophic effect expressed as equivalent amount of E2 ([4]; 100 μg total dose) | vaginal estrogenic effect ([5]; 50 ng in sesame oil (FIG. 3b)) | dose producing a statistically significant (P<0.001) stimulation of vaginal reductase [5] [ng] | also measured |
| --- | --- | --- | --- | --- | --- | --- | --- | --- | --- | --- | --- |
| COC(=O)[C@@H]1C[C@H]2[C@@H]3CCc4cc(O)ccc4[C@H]3CC[C@]2(C)[C@H]1O [E16-1,1, Methyl (3,17β-dihydroxyestra-1,3,5(10)-trien-16α-yl) formate] | 35 ± 4 | 35 | 750 | 10 | 10 ±3 | 45 ± 10 | small stimulatory action (P<0.05) | about 4 μg | still not stimulatory | 250 | uterotrophic stimulation expressed as equivalent amount of E2 ([4]; 30 μg total dose): ~3 ng; dose producing a reproducible and statistically significant stimulation (P<0.01) ([4]; immature rat, s.c. in sesame oil, 3 days, total dose): 30 to 50 µg |
| CCOC(=O)[C@@H]1C[C@H]2[C@@H]3CCc4cc(O)ccc4[C@H]3CC[C@]2(C)[C@H]1O [E16-1,2, Ethyl (3,17β-dihydroxyestra-1,3,5(10)-trien-16α-yl) formate] | 40 ± 10 | 40 | 1,300 | 11 | 11 ± 5 | 100 | no measurable stimulation | about 4 μg | still not stimulatory | 250 | enzymatic velocity for the hydrolysis ([3]; rat hepatic microsomes 0.28 mg protein/ml, ester 50 μM, pH 8.0, ± S.D.): 0.9±0.2 nmol product/min/ml; uterotrophic effect ([4]; 30 μg total dose): small increase in uterine weight |
| C[C@]12CC[C@@H]3c4ccc(O)cc4CC[C@H]3[C@@H]1C[C@@H](C(=O)OCCF)[C@@H]2O [E16-1,2F1, 2′-Fluoroethyl (3,17β-dihydroxyestra-1,3,5(10)-trien-16α-yl) formate] | 35 ± 3 | 35 | 2,000 | 13 | 13 ± 5 | 420 ± 40 |  |  | produced a significant estrogenic effect | 100 | rate of cleavage relative to the non-fluorinated ester E16-1,2 ([3]; esterase, rat hepatic microsomes): about 4 times; uterotrophic effect ([4]; 100 μg total dose): did not produce a uterotrophic stimulation; uterotrophic effect expressed as equivalent amount of E2 ([4]; 300 μg total dose): less than 5 ng; uterotrophic effect ([4]; 300 μg total dose, other experiments (not shown)): small uterotrophic effect; vaginal estrogenic effect ([5]; 10 ng in sesame oil): consistent stimulation at 10 ng of E16-1,2F1, however, it was not statistically significant; vaginal estrogenic effect expressed as equivalent dose of E2 ([5]; 50 ng in sesame oil (FIG. 3b)): ~20 pg |
| C=COC(=O)[C@@H]1C[C@H]2[C@@H]3CCc4cc(O)ccc4[C@H]3CC[C@]2(C)[C@H]1O [E16-1,2vin, Vinyl (3,17β-dihydroxyestran-1,3,5(10)-trien-16α-yl) formates] | 6 ± 2 | 6 |  |  | 0.4 ± 0.3 | 20,300 ± 5,500 |  |  |  |  | stability under the conditions used in the esterase assay [6]: stable |
